Assay results taken from ChEMBL document CHEMBL1201862, “PubChem BioAssay data set” (2004).
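1) Cells in 96-well plates. 2) Compound, 48 h, 5 concentrations. 3) Linear interpolation between surrounding doses. 4) Unreached endpoint = highest concentration. At the GI50, growth is halved.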 Calls of active or inactive are those of the source. Rule as the data show it: active = GI50 up to about 1.1 µM and inactive = higher.

Tests used:
Experiment in all cases: NCI anticancer screen, dose series, 48 h
[1] = system: SNB-78
[2] = system: HOP-62
[3] = system: CCRF-CEM
[4] = system: KM-20L2
[5] = system: A549
[6] = system: RPMI-8226
[7] = system: HOP-18
[8] = system: UACC-257
[9] = system: SK-MEL-28
[10] = system: OVCAR-4
[11] = system: M19-MEL
[12] = system: UO-31
[13] = system: DLD-1
[14] = system: NCI-H226
[15] = system: SK-OV-3
[16] = system: OVCAR-3
[17] = system: SW-620
[18] = system: KM12
[19] = system: SR
[20] = system: A498
[21] = system: CAKI-1
[22] = system: NCI-H460
[23] = system: DMS-273
[24] = system: RXF 631
[25] = system: COLO 205
[26] = system: SNB-19
[27] = system: HCT-15
[28] = system: SF-539
[29] = system: K562
[30] = system: HCC 2998
[31] = system: SK-MEL-5
[32] = system: SNB-75
[33] = system: U-251
[34] = system: 786-0
[35] = system: MOLT-4
[36] = system: NCI-H522
[37] = system: SN12C
[38] = system: ACHN
[39] = system: OVCAR-8
[40] = system: HCT-116
[41] = system: SF-268
[42] = system: IGROV-1
[43] = system: TK-10
[44] = system: UACC-62
[45] = system: Malme-3M
[46] = system: SK-MEL-2
[47] = system: EKVX
[48] = system: M14
[49] = system: HL-60
[50] = system: RXF 393
[51] = system: XF498
[52] = system: OVCAR-5
[53] = system: MDA-N
[54] = system: LOX IMVI
[55] = system: DMS-114
[56] = system: MDA-MB-435
[57] = system: NCI/ADR-RES
[58] = system: HT-29
[59] = system: MDA-MB-231
[60] = system: PC-3
[61] = system: SF-295
[62] = system: T47D
[63] = system: NCI-H23
[64] = system: DU-145
[65] = system: HOP-92
[66] = system: MCF7
[67] = system: BT-549
[68] = system: Hs-578T
[69] = system: LXFL 529

Measured: GI50

CSc1nsc(-c2ccccc2)[s+]1.[O-][Cl+3]([O-])([O-])[O-]
inactive: [1] > 100 µM | [2] > 100 µM | [3] > 100 µM | [4] > 100 µM | [5] > 100 µM | [6] > 100 µM | [7] > 100 µM | [8] > 100 µM | [9] > 100 µM | [10] > 100 µM | [11] > 100 µM | [12] > 100 µM | [13] > 100 µM | [14] > 100 µM | [15] > 100 µM | [16] > 100 µM | [17] > 100 µM | [18] > 100 µM | [19] > 100 µM | [20] > 100 µM | [21] > 100 µM | [22] > 100 µM | [23] > 100 µM | [24] > 100 µM | [25] > 100 µM | [26] > 100 µM | [28] > 100 µM | [29] 64.1 µM | [30] > 100 µM | [31] > 100 µM | [32] > 100 µM | [33] > 100 µM | [34] > 100 µM | [35] > 100 µM | [36] > 100 µM | [37] > 100 µM | [38] > 100 µM | [39] > 100 µM | [40] > 100 µM | [41] > 100 µM | [42] > 100 µM | [43] > 100 µM | [44] > 100 µM | [45] > 100 µM | [46] > 100 µM | [47] > 100 µM | [48] > 100 µM | [49] 72.1 µM | [50] > 100 µM
> 100 µM: [27]

CC[C@@]1(OC(=O)CCC(=O)O)C(=O)OCc2c1cc1n(c2=O)Cc2cc3ccccc3nc2-1
inactive: [1] 2.77 µM | [9] 1.23 µM | [10] 1.46 µM | [13] 1.58 µM | [59] 3.86 µM | [43] 3.65 µM | [65] 1.29 µM | [68] 14.6 µM | [46] 1.85 µM | [47] 1.36 µM | [69] 2.01 µM
0.472 µM: [27]
active: [51] 0.497 µM | [2] 0.0139 µM | [3] < 0.01 µM | [4] 0.979 µM | [5] 0.0773 µM | [6] 0.193 µM | [7] 0.492 µM | [8] 0.254 µM | [11] 0.239 µM | [12] 0.0583 µM | [14] 0.193 µM | [15] 0.23 µM | [16] 0.91 µM | [17] 0.15 µM | [18] 0.659 µM | [52] 0.363 µM | [19] < 0.01 µM | [20] 0.216 µM | [21] 0.0309 µM | [53] 1.09 µM | [22] < 0.01 µM | [54] 0.0375 µM | [23] < 0.0203 µM | [24] 0.427 µM | [55] 0.046 µM | [56] 435 nM | [25] 0.692 µM | [26] 0.0519 µM | [28] 0.0281 µM | [57] 38.3 nM | [29] 0.36 µM | [30] 0.458 µM | [31] 0.127 µM | [32] 0.104 µM | [33] 0.0303 µM | [34] 0.0263 µM | [58] 0.366 µM | [35] < 0.01 µM | [36] 0.103 µM | [37] 0.0333 µM | [38] 0.0208 µM | [39] 0.137 µM | [40] 0.104 µM | [41] 0.0395 µM | [60] 239 nM | [61] 0.0251 µM | [42] 0.541 µM | [62] 65 nM | [63] 0.0442 µM | [64] 27.1 nM | [66] 28.7 nM | [44] 0.0187 µM | [67] 484 nM | [45] 0.467 µM | [48] 0.0556 µM | [49] 0.0313 µM | [50] 0.257 µM

N=C(NNS(=O)(=O)c1ccccc1)Oc1ccc(Br)cc1Br
inactive: [1] > 100 µM | [51] > 100 µM | [2] > 100 µM | [3] 71.4 µM | [4] > 100 µM | [5] > 100 µM | [6] 57.8 µM | [7] > 100 µM | [8] > 100 µM | [9] > 100 µM | [10] > 100 µM | [11] > 100 µM | [12] > 100 µM | [13] > 100 µM | [14] 73.5 µM | [15] > 100 µM | [16] > 100 µM | [17] 11.9 µM | [18] > 100 µM | [52] > 100 µM | [19] > 100 µM | [20] > 100 µM | [21] > 100 µM | [22] > 100 µM | [54] > 100 µM | [23] > 100 µM | [24] > 100 µM | [55] > 100 µM | [25] > 100 µM | [26] > 100 µM | [28] > 100 µM | [29] 90.6 µM | [30] > 100 µM | [31] > 100 µM | [32] 94.2 µM | [33] > 100 µM | [34] 41.3 µM | [58] 55.7 µM | [35] > 100 µM | [36] 67 µM | [37] > 100 µM | [38] > 100 µM | [39] > 100 µM | [40] > 100 µM | [41] > 100 µM | [61] > 100 µM | [42] > 100 µM | [63] 84.7 µM | [43] > 100 µM | [65] 44.8 µM | [44] > 100 µM | [45] > 100 µM | [46] > 100 µM | [47] > 100 µM | [69] > 100 µM | [48] > 100 µM | [49] 92.7 µM | [50] > 100 µM
> 100 µM: [27]
